Drawing on patent US12240840B2, “Amide-substituted heterocyclic compounds for the treatment of conditions related to the modulation of IL-12, IL-23 and/or IFN-alpha” (BRISTOL-MYERS SQUIBB COMPANY, priority 2018, dated 2025), this text covers IC50 for 40 compounds.

Molecules are shown by their SMILES.

The subject of the first assay is IFNα-induced pSTAT5 (pY694) in CD3 positive cells of human whole blood. The assay can be described thus: IFNα-Induced STAT Phosphorylation in Human Whole Blood. The format is cell-based. Conditions: 1 h compound incubation, 1000 U/mL recombinant human IFNα A/D for 15 min, pSTAT5 in CD3 positive population, read-out: Human WB IFNα-Induced Stat Phosph. (IC50). In outline:
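Read-out is median fluorescence intensity of pSTAT5 (pY694) in the CD3-positive gate, by flow cytometry after fix/lyse and permeabilization. Before that, whole human blood anticoagulated with EDTA or ACD-A received compound for an hour and 1000 U/mL IFNα A/D for 15 min.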
With `[2H]C([2H])([2H])NC(=O)c1nnc(NC(=O)C2CC2)cc1Nc1cccc(-c2cnn(CCNC(C)=O)c2)c1OC` [Example 556, 4-((3-(1-(2-acetamidoethyl)-1H-pyrazol-4-yl)-2-methoxyphenyl)amino)-6-(cyclopropanecarboxamido)-N-(methyl-d3)pyridazine-3-carboxamide], the IC50 (as a rule, the concentration at which inhibition is half-maximal) came to 1070 nM.

Still in this assay, the particulars now being: Homo sapiens, 1 h compound incubation, 1000 U/mL recombinant human IFNα A/D for 15 min, pSTAT5 in CD3 positive population, read-out: Human WB IFNα-Induced Stat Phosph. (IC50).
`[2H]C([2H])([2H])NC(=O)c1nnc(NC(=O)C2CC2)cc1Nc1cccc(-c2ncc(C(=O)NCC)s2)c1OC` [Example 272]: the IC50 was 160 nM.

With `COc1c(Nc2cc(NC(=O)C3CC3)nnc2C(N)=O)cccc1-c1noc(CS(C)(=O)=O)n1` [Example 64], the IC50 is 110 nM. On the same count and under the same terms, the result for `[2H]C([2H])([2H])NC(=O)c1nnc(NC(=O)C2CC2)cc1Nc1cccc(-c2nc(CN3CCC(O)CC3)no2)c1OC` [Example 207] reads 480 nM; that for `[2H]C([2H])([2H])NC(=O)c1nnc(NC(=O)C2CC2)cc1Nc1cccc(-c2nc(C)c(C(=O)NCCCN(C)C)s2)c1OC` [Example 357], 880 nM. On the same count and under the same terms, next, `[2H]C([2H])([2H])NC(=O)c1nnc(NC(=O)C2CC2)cc1Nc1cccc(-c2nc(C)c(C(=O)N3CCC(CCN4CCCC4)CC3)s2)c1OC` [Example 371]: 310 nM; `[2H]C([2H])([2H])NC(=O)c1nnc(NC(=O)C2CC2)cc1Nc1cccc(-c2noc(CN3CCCCS3(=O)=O)n2)c1OC` [Example 12]: 11 nM.

In the case of `[2H]C([2H])([2H])NC(=O)c1nnc(NC(=O)C2CC2)cc1Nc1cccc(-c2nc(CNC(=O)OC(C)(C)C)no2)c1OC` [Example 142], the IC50 amounted to 5310 nM.

As to `[2H]C([2H])([2H])NC(=O)c1cnc(NC(=O)C2CC2)cc1Nc1cccc(-c2noc(CN3CCN(S(C)(=O)=O)CC3)n2)c1OC` [Example 95], the IC50 was 21 nM. The same measure, in the same setting: the result for `[2H]C([2H])([2H])NC(=O)c1nnc(NC(=O)C2CC2)cc1Nc1cccc(-c2nc(CN3CCN(C(=O)OC)CC3)no2)c1OC` [Example 138] reads 180 nM; that for `[2H]C([2H])([2H])NC(=O)c1nnc(NC(=O)C2CC2)cc1Nc1cccc(-c2ncc(CC(=O)NCCOC)o2)c1OC` [Example 411], 1800 nM; that for `COc1c(Nc2cc(NC(=O)C3CC3)nnc2C(N)=O)cccc1-c1noc(CN(C(C)C)S(C)(=O)=O)n1` [Example 61], 60 nM. Take `[2H]C([2H])([2H])NC(=O)c1nnc(NC(=O)C2CC2)cc1Nc1cccc(-c2nc(C)c(C(=O)N3C[C@@H](C)O[C@@H](C)C3)s2)c1OC` [Example 362]: the IC50 was determined as 270 nM. Same read-out and setting: the result for `[2H]C([2H])([2H])NC(=O)c1nnc(NC(=O)C2CC2)cc1Nc1cccc(-c2nc(CN(C)S(C)(=O)=O)no2)c1OC` [Example 169] reads 110 nM. Consider `[2H]C([2H])([2H])NC(=O)c1nnc(NC(=O)C2CC2)cc1Nc1cccc(-c2nc(CN3CCN(C(=O)c4cccnc4)CC3)no2)c1OC` [Example 131], for which the IC50 is 740 nM.

With `CCS(=O)(=O)N1CCN(C(=O)c2cnc(-c3cccc(Nc4cc(NC(=O)C5CC5)nnc4C(N)=O)c3OC)s2)CC1` [Example 402], the IC50 was 40 nM. On the same count and under the same terms, next, `[2H]C([2H])([2H])NC(=O)c1nnc(NC(=O)C2CC2)cc1Nc1cccc(-c2ncc(C(=O)N3C[C@@H](C)O[C@@H](C)C3)s2)c1OC` [Example 275]: 150 nM. For the compound `COc1c(Nc2cc(NC(=O)C3CC3)nnc2C(N)=O)cccc1-c1noc(CN2CCOCC2)n1` [Example 8], the IC50 turned out to be 21 nM. Still for that read-out and setting: next, `[2H]C([2H])([2H])NC(=O)c1nnc(NC(=O)C2CC2)cc1Nc1cccc(-n2cc(CN3CCOCC3)nn2)c1OC` [Example 2]: 650 nM; `[2H]C([2H])([2H])NC(=O)c1nnc(NC(=O)C2CC2)cc1Nc1cccc(-c2cnn(CCNC(=O)CC#N)c2)c1OC` [Example 559]: 830 nM. On the same count and under the same terms, the result for `[2H]C([2H])([2H])NC(=O)c1nnc(NC(=O)C2CC2)cc1Nc1cccc(-c2ncc(C(=O)NCC3CCCCN3C)s2)c1OC` (stereo not shown) [Example 329] reads 50 nM; that for `[2H]C([2H])([2H])NC(=O)c1nnc(NC(=O)C2CC2)cc1Nc1cccc(-c2cnn(CC(=O)NCC(CC)CC)n2)c1OC` [Example 428], 2630 nM; that for `[2H]C([2H])([2H])NC(=O)c1cnc(NC(=O)C2CC2)cc1Nc1cccc(-c2nc(CN3CCOCC3)no2)c1OC` [Example 125], 60 nM. Still for that read-out and setting: next, `COc1c(Nc2cc(N)nnc2C(N)=O)cccc1-c1ncc(C(=O)NCCC2CCCN2C)s1` (stereo not shown) [Example 377]: 1410 nM; `[2H]C([2H])([2H])NC(=O)c1nnc(NC(=O)C2CC2)cc1Nc1cccc(-c2noc(CN3CC(O)C3)n2)c1OC` [Example 80]: 110 nM. In the case of `[2H]C([2H])([2H])NC(=O)c1nnc(NC(=O)C2CC2)cc1Nc1cccc(-c2cc(C(=O)N3CCN(C(=O)OC)CC3)n(C)n2)c1OC` [Example 494], the IC50 was determined as 250 nM. Still for that read-out and setting: the result for `[2H]C([2H])([2H])NC(=O)c1nnc(NC(=O)C2CC2)cc1Nc1cc(F)cc(-c2cc(C(C)(C)O)n(C)n2)c1OC` [Example 489] reads 290 nM.

`[2H]C([2H])([2H])NC(=O)c1nnc(NC(=O)C2CC2)cc1Nc1cccc(-c2ncc(C(=O)NCC34CCN(CC3)CC4)s2)c1OC` [Example 287]: the IC50 amounted to 1260 nM. For the compound `[2H]C([2H])([2H])NC(=O)c1nnc(Nc2ccc(C)nn2)cc1Nc1cccc(-c2ncc(CO)s2)c1OC` [Example 393], the IC50 amounted to 180 nM. `[2H]C([2H])([2H])NC(=O)c1nnc(Nc2ccc(OC)nn2)cc1Nc1cccc(-c2nc(CN3CCOCC3)no2)c1OC` [Example 238]: the half-inhibitory concentration (IC50) turned out to be 80 nM. Still for that read-out and setting: the result for `[2H]C([2H])([2H])NC(=O)c1nnc(NC(=O)C2CC2)cc1Nc1cccc(-c2nc(CC(C)C)no2)c1OC` [Example 122] reads > 10000 nM; that for `[2H]C([2H])([2H])NC(=O)c1nnc(NC(=O)C2CC2)cc1Nc1cccc(-c2ncc(CC(=O)NCCCN(C)C)s2)c1OC` [Example 252], 3270 nM; that for `[2H]C([2H])([2H])NC(=O)c1nnc(NC(=O)C2CC2)cc1Nc1cccc(-c2nc(C3(NC(=O)COC)CC3)no2)c1OC` [Example 149], 1950 nM. Regarding `[2H]C([2H])([2H])NC(=O)c1nnc(NC(=O)C2CC2)cc1Nc1cccc(-c2nc(C(OCC)OCC)no2)c1OC` [Example 224], the IC50 came to 880 nM. The same measure, in the same setting: the result for `[2H]C([2H])([2H])NC(=O)c1nnc(NC(=O)C2CC2)cc1Nc1cccc(-c2noc([C@@H](C)O)n2)c1OC` [Example 85] reads 240 nM; that for `[2H]C([2H])([2H])NC(=O)c1nnc(NC(=O)C2CC2)cc1Nc1cccc(-c2cc(C(=O)NC(CO)CO)n(C)n2)c1OC` [Example 523], 1680 nM. The same measure, in the same setting: the result for `[2H]C([2H])([2H])NC(=O)c1cnc(Nc2cc(C)ccn2)cc1Nc1cccc(-c2noc(COCC)n2)c1OC` [Example 100] reads 60 nM; that for `[2H]C([2H])([2H])NC(=O)c1nnc(NC(=O)C2CC2)cc1Nc1cccc(-c2nc(CN3CCN(C(=O)OC(C)(C)C)CC3)no2)c1OC` [Example 135], 2010 nM. The same measure, in the same setting: the result for `[2H]C([2H])([2H])NC(=O)c1nnc(NC(=O)C2CC2)cc1Nc1cccc(-c2csc(C(=O)NCCOC)n2)c1OC` [Example 566] reads 680 nM.

For the compound `[2H]C([2H])([2H])NC(=O)c1nnc(NC(=O)C2CC2)cc1Nc1cccc(-c2ncc(CC(=O)NCCOC)s2)c1OC` [Example 255], the IC50 was found to be 620 nM.
